Test results: article PMC10178506, “Chemical and Biological Evaluation of Novel 1H-Chromeno[3,2-c]pyridine Derivatives as MAO Inhibitors Endowed with Potential Anticancer Activity” (International Journal of Molecular Sciences, 2023)
Where “and” joins values, the source holds several entries; their conditions need not be identical. Identical values can stand only once. Like-named read-outs stand apart in the source and are kept apart here.

What was measured:
[1] = test system: MAO B; set-up: method as in PMID 32716595; conditions: read-out: MAO B IC50 (previous work); cited from earlier work
[2] = test system: AChE; set-up: method as in PMID 32716595; conditions: read-out: AChE IC50 (previous work); cited from earlier work
[3] = test system: HCT116, colon cancer cell line; test: Antiproliferative activity, sulforhodamine-B (SRB) assay, HCT116; assay type: cell-based, human; conditions: Homo sapiens, read-out: Antiproliferative activity IC50, HCT116
Procedure: (§1) The SK-OV-3 ovarian cancer cell line, MCF-7 breast cancer line and HCT-116 colon cancer cell line were obtained from the National Cancer Institute, Biological Testing Branch (Frederick, MD, USA), and maintained in the logarithmic phase at 37 °C in a 5% CO2 humidified air in RPMI 1640 medium supplemented with 10% fetal calf serum, 2 mM glutamine, penicillin (100 U/mL) and streptomycin (0.1 mg/mL).
(§2) The growth inhibitory effects of compounds under investigation were compared to those of cisplatin (CDDP) and doxorubicin (DXR), used as positive controls, and evaluated by using the sulforhodamine-B (SRB) assay. Briefly, cells were seeded into 96-well microtiter plates in 100 µL of the appropriate culture medium at plating densities at 2500, 5000 and 8000 cells/well for MCF-7, HCT-116 and SKOV-3, respectively, depending upon the doubling time of individual cell lines. After seeding, microtiter plates were incubated at 37 °C for 24 h before adding the test compounds. After 24 h, several samples of each cell line were fixed in situ with cold trichloroacetic acid (TCA) to represent a measurement of the cell population at the time of compound addition. The test compounds were freshly dissolved in dimethyl sulfoxide (DMSO, 10^−2 M) and gradually diluted to different concentrations (0.79–50 µM) with a complete medium, so that the maximum DMSO/well ratio was 0.5% v/v. After the addition of different compound concentrations to triplicate wells, the plates were further incubated at 37 °C for 72 h. Cells were fixed in situ by the gentle addition of 50 µL of cold 50% w/v TCA (final concentration 10%) and incubated for 1 h at 4 °C. The supernatant was discarded, and the plates were washed with tap water and air-dried. SRB solution (100 µL) at 0.4% (w/v) in 1% acetic acid was added to each well, and the plates were incubated for 30 min at room temperature. After staining, the unbound dye was removed by washing with 1% acetic acid and the plates were air-dried. The bound stain was then solubilized with 10mM Trizma base and the absorbance was read on an automatic plate reader at 570 nm.

[4] = target: T1, human recombinant MAO A (Homo sapiens, UniProt P21397); test: biochemical; assay type: biochemical; conditions: for inhibition at 10 µM: read-out: hMAO-A % inhibition at 10 μM
T1 construct: purchased Sigma Aldrich (Milan, Italy); host or cells: baculovirus-infected insect cells
T1 sequence (P21397 1-527): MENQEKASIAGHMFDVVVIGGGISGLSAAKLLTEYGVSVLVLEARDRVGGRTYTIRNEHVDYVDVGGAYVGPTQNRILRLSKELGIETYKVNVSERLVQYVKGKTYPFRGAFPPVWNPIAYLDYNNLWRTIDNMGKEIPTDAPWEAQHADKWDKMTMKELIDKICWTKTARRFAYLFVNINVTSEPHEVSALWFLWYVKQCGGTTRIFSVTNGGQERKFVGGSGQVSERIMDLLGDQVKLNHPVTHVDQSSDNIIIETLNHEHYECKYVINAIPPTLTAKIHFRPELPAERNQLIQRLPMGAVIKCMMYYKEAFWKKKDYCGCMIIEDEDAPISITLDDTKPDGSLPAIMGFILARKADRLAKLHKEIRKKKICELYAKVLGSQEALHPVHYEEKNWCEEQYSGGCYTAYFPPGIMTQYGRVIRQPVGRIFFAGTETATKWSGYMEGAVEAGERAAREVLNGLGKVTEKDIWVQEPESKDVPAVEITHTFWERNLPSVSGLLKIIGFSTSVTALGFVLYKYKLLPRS
Procedure: (§3) Human isoforms of MAOs (from baculovirus-infected insect cells) and ChEs (human recombinant AChE and BChE from human serum), purchased from Sigma Aldrich (Milan, Italy), were used for inhibition assays. Experiments were performed in 96-well plates (Greiner Bio-One, Kremsmünster, Austria) on the Infinite M1000 Pro plate reader (Tecan, Cernusco s.N., Italy), using already published protocols.
After the addition of human recombinant MAO A (250 U/mg) or MAO B (59 U/mg) and a further 30 min of incubation, NaOH was added, and the fluorescence read at 310/400 nm excitation/emission wavelength. […] IC50 is expressed as mean ± SD of three independent measurements, each one performed in duplicate. For the kinetic study on the inhibition mechanism of MAO B, three diverse scalar concentrations of the inhibitor and seven concentrations of kynuramine were used.
(§4) The IC50 values, Michaelis–Menten curve fitting and inhibition constant (Ki) were calculated by nonlinear regression, using Prism software.

[5] = test system: SK-OV-3, human ovarian carcinoma with intrinsic resistance to cisplatin; test: Antiproliferative activity, sulforhodamine-B (SRB) assay, SK-OV-3; assay type: cell-based; conditions: read-out: Antiproliferative activity IC50, SK-OV-3
Procedure: as §1, §2

[6] = target: T2, human recombinant MAO B (Homo sapiens, UniProt P27338); test: biochemical; assay type: biochemical; conditions: for IC50: hMAO-B IC50, mean ± S.D., determined for compounds with more than 60% inhibition at 10 μM; for MAO B inhibition mechanism: Michaelis-Menten curves' fitting, kynuramine as the substrate
T2 construct: purchased Sigma Aldrich (Milan, Italy); host or cells: baculovirus-infected insect cells
T2 sequence (P27338 1-520): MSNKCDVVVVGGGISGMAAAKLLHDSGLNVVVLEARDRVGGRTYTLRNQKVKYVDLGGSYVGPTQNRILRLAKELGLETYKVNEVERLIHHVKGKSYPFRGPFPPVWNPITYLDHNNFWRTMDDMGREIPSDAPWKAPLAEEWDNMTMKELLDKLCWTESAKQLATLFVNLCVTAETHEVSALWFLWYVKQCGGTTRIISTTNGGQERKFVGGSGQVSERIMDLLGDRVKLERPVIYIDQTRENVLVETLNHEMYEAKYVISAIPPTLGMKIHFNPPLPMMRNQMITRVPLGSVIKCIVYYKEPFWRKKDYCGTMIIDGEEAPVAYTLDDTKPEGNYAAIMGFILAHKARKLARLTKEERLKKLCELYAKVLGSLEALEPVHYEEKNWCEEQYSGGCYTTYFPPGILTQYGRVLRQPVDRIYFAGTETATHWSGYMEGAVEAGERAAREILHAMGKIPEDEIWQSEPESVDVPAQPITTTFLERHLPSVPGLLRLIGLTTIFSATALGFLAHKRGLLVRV

[7] = target: T3, BChE from human serum (Homo sapiens, UniProt P06276); test: biochemical; conditions: 10 μM concentration, mean ± S.D. (n = 3), n.i. = no inhibition at 10 μM; for inhibition at 10 µM: read-out: hBChE % inhibition at 10 μM
T3 construct: ChEs (human recombinant AChE and BChE from human serum), purchased from Sigma Aldrich (Milan, Italy); purchased Sigma Aldrich (Milan, Italy); host or cells: human serum (natural source)
T3 sequence (P06276 29-602): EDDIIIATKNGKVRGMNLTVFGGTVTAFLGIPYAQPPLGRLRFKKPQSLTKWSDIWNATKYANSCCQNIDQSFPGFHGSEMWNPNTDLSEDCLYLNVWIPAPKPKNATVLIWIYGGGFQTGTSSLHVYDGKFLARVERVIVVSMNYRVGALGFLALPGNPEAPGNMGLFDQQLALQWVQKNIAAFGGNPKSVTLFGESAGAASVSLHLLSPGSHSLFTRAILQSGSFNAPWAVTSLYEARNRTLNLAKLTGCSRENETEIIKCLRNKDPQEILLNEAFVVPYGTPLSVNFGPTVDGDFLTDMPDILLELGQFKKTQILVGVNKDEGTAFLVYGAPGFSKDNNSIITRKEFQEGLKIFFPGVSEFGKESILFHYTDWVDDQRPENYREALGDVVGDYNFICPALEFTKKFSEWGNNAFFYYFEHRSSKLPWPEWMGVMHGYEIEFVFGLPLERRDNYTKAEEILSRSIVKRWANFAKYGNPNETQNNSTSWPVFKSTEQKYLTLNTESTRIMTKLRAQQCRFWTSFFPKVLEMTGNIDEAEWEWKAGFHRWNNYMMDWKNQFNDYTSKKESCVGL
Procedure: as §3
(§5) The inhibition of human recombinant AChE or BChE from human serum was determined by applying Ellman’s spectrophotometric method as described in previously reported protocols. The AChE activity was determined in an assay solution containing AChE (0.09 U/mL), 5,5′-dithiobis(2-nitrobenzoic acid) (i.e., the Ellman’s reagent, 0.33 mM), the test compound (10 μM concentration, or seven scalar concentrations for compounds achieving > 60% enzyme inhibition at 10 μM), in 0.1 M PBS pH 8.0. […] The BChE inhibitory activity was similarly determined by using BChE (0.09 U/mL) and butyrylthiocholine iodide (5 μM) as the substrate.
as §4

[8] = target: T4, human recombinant AChE (Homo sapiens, UniProt P22303); test: biochemical; conditions: for inhibition at 10 µM: read-out: hAChE % inhibition at 10 μM
T4 construct: purchased Sigma Aldrich (Milan, Italy)
T4 sequence (P22303 32-614): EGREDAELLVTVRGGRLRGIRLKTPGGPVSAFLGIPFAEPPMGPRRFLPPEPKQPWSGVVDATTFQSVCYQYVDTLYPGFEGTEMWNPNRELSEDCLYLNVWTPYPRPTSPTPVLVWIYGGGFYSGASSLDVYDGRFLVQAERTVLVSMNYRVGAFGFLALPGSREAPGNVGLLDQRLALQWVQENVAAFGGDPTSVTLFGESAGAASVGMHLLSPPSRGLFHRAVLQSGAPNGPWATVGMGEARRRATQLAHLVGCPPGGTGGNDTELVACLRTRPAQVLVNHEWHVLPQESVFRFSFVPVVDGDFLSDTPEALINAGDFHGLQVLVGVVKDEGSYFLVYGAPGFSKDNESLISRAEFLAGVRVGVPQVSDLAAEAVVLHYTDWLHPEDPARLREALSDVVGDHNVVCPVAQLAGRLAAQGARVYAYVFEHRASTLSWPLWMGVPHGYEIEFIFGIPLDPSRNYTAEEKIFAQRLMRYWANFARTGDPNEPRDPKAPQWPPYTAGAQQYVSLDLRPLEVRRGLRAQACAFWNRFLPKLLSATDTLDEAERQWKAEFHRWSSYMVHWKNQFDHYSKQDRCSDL
Procedure: as §3, §5, §4

[9] = test system: MCF-7, human breast carcinoma cell; test: Antiproliferative activity, sulforhodamine-B (SRB) assay, MCF-7; assay type: cell-based; conditions: Homo sapiens, read-out: Antiproliferative activity IC50, MCF-7
Procedure: as §1, §2

[10] = HCT-116, 72 h exposure, SRB assay, mean ± S.D., >50 = less than 50% growth inhibition at 50 μM
[11] = Homo sapiens, SK-OV-3, 72 h, 72 h exposure, SRB assay, mean ± S.D., >50 = less than 50% growth inhibition at 50 μM
[12] = MCF7, 72 h exposure, SRB assay, mean ± S.D., >50 = less than 50% growth inhibition at 50 μM

Row | melting point | SMILES | IC50 [6] | inhibition at 10 µM [8] | IC50 [3, 10] | inhibition at 10 µM [4] | IC50 [5, 11] | inhibition at 10 µM [7] | IC50 [9, 12] | also measured
1 | 140 to 142 °C | CN1CCC2=C(C1)C(C[N+](=O)[O-])c1cc(Br)ccc1O2 (stereo not shown) |  |  |  |  |  |  |  | 
2 | 172 to 173 °C | CN1CC[C@@]2(O)Oc3ccc(Cl)cc3[C@@H](O)[C@H]2C1 |  |  |  |  |  |  |  | 
3 | 134 to 135 °C | COc1cccc2c1O[C@]1(O)CCN(C)C[C@@H]1[C@@H]2O |  |  |  |  |  |  |  | 
4 | 158 to 159 °C | CN1CC[C@@]2(O)Oc3ccc([N+](=O)[O-])cc3[C@@H](O)[C@H]2C1 |  |  |  |  |  |  |  | 
5 | 167 to 168 °C | CN1CC[C@@]2(O)Oc3ccc(Cl)cc3[C@@H](O)[C@@H]2C1 |  |  |  |  |  |  |  | 
6 | 148 to 149 °C | COc1cccc2c1O[C@]1(O)CCN(C)C[C@H]1[C@@H]2O |  |  |  |  |  |  |  | 
7 |  | CCOc1cccc2c(=O)c3c(oc12)CCN(Cc1ccccc1)C3 |  |  |  |  |  |  |  | IC50 [1]: 0.89 µM
8 |  | CC(C)N1CCc2oc3ccc(Br)cc3c(=O)c2C1 |  |  |  |  |  |  |  | IC50 [1]: 2.23 µM; IC50 [2]: 3.22 µM
9 |  | CN1CC=C2Oc3ccc(Br)cc3C=C2C1 [2b, 8-Bromo-2,3-dihydro-2-methyl-1H-chromeno[3,2-c]pyridine] | 7.88 ± 0.02 µM | 31% |  |  |  |  |  | IC50 ([3]; HCT-116, 72 h): > 50 µM; IC50 [4]: 0.703 ± 0.012 µM; Selectivity for MAO A over MAO B ([4]; from MAO A and MAO B inhibition data): about tenfold; IC50 ([5]; Homo sapiens, SK-OV-3, 72 h): > 50 µM; hBChE % inhibition at 10 μM [7]: n.i.; IC50 ([9]; MCF7, 72 h): 42.9 ± 4.82 µM
10 |  | COc1cccc2c(=O)c3c(oc12)C=CN(C)C3C#Cc1ccccc1 (stereo not shown) [3b, 6-Metoxy-2-methyl-1-(phenylethinyl)-1H-chromeno[3,2-c]pyridine-10(2H)-one] | 0.63 µM and 0.626 µM | 39% | 36.1 ± 2.1 µM | 32% | > 50 µM | 19% | 39.7 ± 11.3 µM | Ki [6]: 1.41 ± 0.21 µM; MAO B inhibition mechanism [6]: competitive; MAO B/A selectivity ([6]; from MAO B and MAO A inhibition data): more than twentyfold
11 |  | CCN1C=Cc2oc3ccccc3c(=O)c2C1C#CC(F)(F)F (stereo not shown) [3c, 2-Ethyl-1-(3,3,3-trifluoroprop-1-yn-1-yl)-1,2-dihydro-10H-chromeno[3,2-c]pyridin-10-one] |  |  | 47.2 ± 5.42 µM | 20% | > 50 µM | 15% | 27.8 ± 9.6 µM | inhibition at 10 µM ([6]; read-out: hMAO-B % inhibition at 10 μM): 26%; hAChE % inhibition at 10 μM [8]: n.i.
12 |  | CN1CCC2=C(C1)C(c1c[nH]c3ccccc13)c1cc(Cl)ccc1O2 (stereo not shown) [6a, 8-Chloro-10-(1H-indole-3-yl)-2-methyl-2,3,4,10-tetrahydro-1H-chromeno[3,2-c]pyridine] | 7.3 ± 0.65 µM | 53% | 8.62 ± 2.21 µM | 21% | 14.7 ± 2.81 µM | 38% | 4.8 ± 0.81 µM | 
13 |  | COc1ccc2[nH]cc(C3C4=C(CCN(C)C4)Oc4ccc(Cl)cc43)c2c1 (stereo not shown) [6b, 8-Chloro-10-(5-metoxy-1H-indole-3-yl)-2-methyl-2,3,4,10-tetrahydro-1H-chromeno[3,2-c]pyridine] | 4.72 ± 0.1 µM | 53% | 18.6 ± 2.22 µM | 21% | 22.3 ± 1.42 µM | 15% | 6.62 ± 2.7 µM | 
14 |  | CN1CCC2=C(C1)C(c1c[nH]c3ccc(Br)cc13)c1cc(Cl)ccc1O2 (stereo not shown) [6c, 8-Chloro-10-(5-bromo-1H-indole-3-yl)-2-methyl-2,3,4,10-tetrahydro-1H-chromeno[3,2-c]pyridine] | 3.51 ± 0.2 µM | 37% | 9.4 ± 0.22 µM | 29% | 11 µM | 23% | 4.83 ± 0.79 µM | IC50 ([5]; 72 h exposure, SRB assay, mean ± S.D., >50 = less than 50% growth inhibition at 50 μM): 11.3 ± 0.32 µM; Ki [6]: 6.47 ± 0.22 µM; MAO B inhibition mechanism [6]: competitive
